We go through one compound from patent publication US20250082625A1, “NOVEL THERAPY” (priority 2016, published 2025).

Test [1] deals with Nlrp3^−/− mice infected with CY-17. Kind of test: Disease severity / bladder pathology in CY-17 infected Nlrp3^−/− mice (murine acute cystitis model). The format is in vivo. Here is the method:
To inhibit the NK1R dependent response to infection, we used the NK1R antagonist SR 140333. FIG. 6a Experimental scheme of NK1R antagonist (SR140333) treatment. Susceptible Nlrp3^−/− mice were infected with CY-17 for 24 hours, and the neuropeptide response and disease severity was compared between untreated infected mice, treated and infected mice and sham treated uninfected mice. The mice were either pre-treated with SR140333 i.p. for 30 minutes prior to infection or treated i.p. 1 hour after infection. Sham treated mice received SR140333 i.p. and PBS intravesically. n=10 mice in each treatment group, n=6 in the sham treated, uninfected group. N=2 in the uninfected control group. Means+SEMs of 2 experiments, total number of mice=39. FIG. 6b Protection against gross bladder pathology in SR140333 treated mice compared untreated, infected mice, FIG. 6c Inhibition of NK1R staining in treated mice compared to infected mice not receiving SR140333. Sections were obtained from 4 mice per condition. FIG. 6d Inhibition of Nk1r expression, detected by qRT-PCR analysis of treated mice compared to untreated, infected mice. Sections were obtained from 5 mice per treatment group. FIG. 6e Attenuated SP staining in SR140333 treated infected mice compared to untreated mice (n=4 mice per condition). […] FIG. 6h Galr2 gene expression is not altered after treatment with SR140333. n=5 mice per treatment group (*=p<0.05, **=p<0.01, Mann-Whitney test). FIG. 6i Protection from bladder tissue pathology shown in H&E stained and neutrophil and bacterial immunostained sections from treated versus control mice. […] (n=10 mice per treatment group, n=4 mice per sham group, means+SEMs, *P<0.05, **P<0.01, ***P<0.001, one way Anova).
Susceptible Nlrp3^−/− mice were treated with SR140333 intra-peritoneally (1 mg/kg), one hour before infection (pretreatment) or 30 minutes after infection (post-treatment) with CY-17 (FIG. 6a). The severity of acute cystitis after 24 hours or seven days was examined and neuropeptide expression and disease severity quantified by immunohistochemistry and qRT-PCR of whole bladder RNA extracts, using primers specific for NK1R, Ppt-1 or Galr2 as described above.
Bladder tissue was more intact and the inflammatory cell infiltrate was reduced in tissues.

Test [2] relates to HTB-9 cells. Description: Pre-treatment of HTB-9 bladder epithelial cells before CY17 infection (confocal imaging, ELISA). The test is classed as cell-based, human. How it is done:
Cells were grown on 8-well chamber slides (6×10^4 cells/well, Thermo Fischer Scientific) or in 6-well plates (6×10^5 cells/well) for 16 hours in media supplemented with 10% FBS. Media were removed, and cells were washed with PBS before adding medium without FBS. Cells were infected with bacteria diluted to appropriate concentration in PBS and incubated for one or four hours at 37° C. with 5% CO2.
The two cell types were first infected with increasing concentrations of the acute cystitis strain E. coli CY-17 (10^2-10^4 cfu/ml) for 1 to 4 hours. NK1R and SP expression was used as a read out of the cellular response. […] A concentration of 10^4 cfu/ml of CY-17 and four hours of infection was chosen for further studies. Under these conditions, there was little cytotoxicity. To further characterize the neuropeptide response to bladder infection, the in vitro analysis was extended to include GALR2, OrxR2 and TAS2R43. Confocal microscopy was used in this instance. Infected cells were fixed (3.7% formaldehyde, 15 min), permeabilized (0.25% triton X-100, 5% FBS, 10 min), blocked (5% FBS, 1 h at RT), incubated overnight with primary antibodies in 5% FBS: Anti-NK1R (1:100, SC-15323, Santa Cruz), anti-SP, (1:200, ORB11399, Biorbyt), anti-orexin receptor 2, (1:200, AB10470, Abcam), anti-TAS2R43, (1:200, AB65513, Abcam), and anti-GALR2 antibodies (1:100, AB136264, Abcam). Appropriate fluorescently labeled secondary antibodies were used (Alexa Fluor® 488 goat anti-rabbit IgG, A-11034; Life Technologies, (1 hour at Room Temperature). After nuclear staining (DRAQ5, 1:1000, Abcam) slides were mounted (Fluoromount, Sigma-Aldrich), imaged by laser scanning confocal microscopy (MSM510 META confocal microscope, Carl Zeiss) and quantified by ImageJ software 1.46r (NIH).
HTB-9 cells and differentiated SH-SY5Y cells were pre-treated with SR140333, or IL-1RA Anakinra (500 ng/ml) for 30 minutes before infection with CY17 (10^4 cfu/ml, four hours), or treatment with exogenous recombinant SP (R&D System) or IL-1β (Abnova) (20 ng/ml, four hours). After infection, cells were infected with CY17 and the NK1R, SP and IL-1β response was quantified by confocal imaging. IL-1β- and SP secretion was quantified by ELISA, in culture supernatants. In nerve- and bladder epithelial cells, SR140333 inhibited the SP/NK1R response to infection, consistent with an autocrine activation loop involving SP/NK1R as shown by confocal imaging (FIG. 10a). […] SP activated IL-1β expression and secretion in bladder epithelial cells but had no effect on IL-1β on nerve cells. (*=P<0.05, **=P<0.01, ***=P<0.001, Two-tailed t-test for confocal imaging data and Mann-Whitney U-test for ELISAs.
Furthermore, to examine if the effects of NK1R inhibition can be generalized, we used two additional NK1R antagonists (CP99994 and L703.303). HTB-9 cells and differentiated SH-SY5Y cells were pre-treated with SR140333, CP99994, L-703.606 or IL-1RA Anakinra (500 ng/ml) for 30 minutes before infection with CY17 (10^4 cfu/ml, four hours), or treatment with exogenous recombinant SP (R&D System) or IL-1β (Abnova) (20 ng/ml, four hours).

Setting [3] is: pre-treated before CY17 infection.

Entries after “also recorded” stand apart in the source; their conditions may differ.

`CC(C)Oc1cccc(CC(=O)N2CCC[C@](CC[N+]34CCC(c5ccccc5)(CC3)CC4)(c3ccc(Cl)c(Cl)c3)C2)c1.[Cl-]` [SR140333, 1-[2-[(3S)-3-(3,4-Dichlorophenyl)-1-[2-[3-(1-methylethoxy)phenyl]acetyl]-3-piperidinyl]ethyl]-4-phenyl-1-azoniabicyclo[2.2.2]octane chloride]: in test [1] (24 hours post infection, vs infected mice without therapy), the “gross bladder pathology (edema, hyperemia and bladder enlargement)” value is recorded as “reduction; also recorded: Protection”. Moreover, in test [1] (after treatment with SR140333), the Histology score result was “reduced pathology”. For the same compound, in test [1] (treated Nlrp3^−/− mice vs infected mice without therapy), the “inflammatory cell infiltrate in tissues” value is on record as “reduced”. Also, the “bladder tissue pathology / tissue integrity (H&E, neutrophil and bacterial immunostained sections)” value in test [1] (treated versus control mice) is “more intact; also recorded: Protection”. Moreover, the “SP/NK1R response to infection (confocal imaging)” value in test [2] (pre-treated 30 minutes before CY17 (10^4 cfu/ml, four hours)) is on record as “inhibited”. In test [2] (setting [3]), the “IL-1β secretion (ELISA, culture supernatants)” value was “inhibited; also recorded: decreased” and the “SP secretion (ELISA, culture supernatants)” value is on record as “decreased”.
